The record followed here is patent US12655458B2, “Methods for cyclization of (poly)peptides comprising nγ-hydroxy- or Nγ-amino-L-asparagine” (priority 2021, dated 2026).

Starred links: 1 amine or outer side, 2 acyl side, 3 side chain; linkers in the order of their positions; H or OH if unused. Positions of bridges follow the written chain, without caps; N, C: chain ends. Non-standard residues stand in square brackets, D forms with d. Residues, ends and D or L forms follow the SMILES beside them. N(NH2) = N-gamma-amino-L-asparagine, O=C(C[C@H](N[*:1])C(=O)[*:2])NN[*:3]

The target in one test is T1, MMP9 (Homo sapiens, UniProt P14780).
T1 construct: purchased Sigma-Aldrich
The test is described as follows: MMPs inhibition assay (FRET substrate), MMP9. In kind it is biochemical. The procedure: (§1) The inhibitory activity of the peptides was determined by measuring the MMPs' protease activity towards a FRET substrate. 0.8 nM MMP2 or MMP9 (Sigma-Aldrich), 10 μM substrate (FAM-Lys-Pro-Leu-Gly-Leu-Lys(Dabcyl)-Ala-Arg-NH2, λex 490 nm; λem 520 nm) and various concentrations of the peptides (0.0001 μM-10 μM or 0.001 μM-100 μM) were used. The reactions were performed in 50 mM Tris-HCl buffer (pH 7.5) containing 150 mM NaCl, 10 mM CaCl2, 0.05% Brij35, at 37° C. MMP2 was pre-incubated with the peptide inhibitors for 10 min before adding the substrate. All the numbers were input into GraphPad Prism (GraphPad Software, San Diego) for IC50 calculation.

A further test addresses T2, MMP2 (Homo sapiens, UniProt P08253).
T2 construct: purchased Sigma-Aldrich
T2 sequence (P08253 110-660): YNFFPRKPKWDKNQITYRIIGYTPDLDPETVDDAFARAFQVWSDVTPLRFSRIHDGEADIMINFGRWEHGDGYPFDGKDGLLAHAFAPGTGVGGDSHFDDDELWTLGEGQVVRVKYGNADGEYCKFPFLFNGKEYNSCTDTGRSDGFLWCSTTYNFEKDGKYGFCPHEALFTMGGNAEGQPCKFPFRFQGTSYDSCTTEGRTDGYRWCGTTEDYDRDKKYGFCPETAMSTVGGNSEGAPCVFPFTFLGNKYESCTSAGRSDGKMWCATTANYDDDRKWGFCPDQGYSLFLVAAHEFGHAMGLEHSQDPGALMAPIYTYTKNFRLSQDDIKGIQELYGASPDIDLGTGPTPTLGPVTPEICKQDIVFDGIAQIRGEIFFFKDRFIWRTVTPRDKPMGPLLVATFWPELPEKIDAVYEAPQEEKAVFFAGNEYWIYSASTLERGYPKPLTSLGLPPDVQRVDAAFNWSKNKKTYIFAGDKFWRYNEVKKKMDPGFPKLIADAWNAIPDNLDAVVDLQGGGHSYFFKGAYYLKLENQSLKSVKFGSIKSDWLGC
As to the kind of experiment: MMPs inhibition assay (FRET substrate), MMP2. In kind it is biochemical. The procedure:
as §1

The subject of another test is butelase 1. As to the kind of experiment: Butelase 1-mediated inter-peptide ligation with acyl acceptor GIRGI. Particulars: 400 uM peptide, 3.2 mM GIRGI, 0.01 eq butelase 1, pH 6.5, room temperature. In kind it is biochemical, Clitoria ternatea. How it is done:
The reaction was conducted using 400 uM of Ac-KYSN(NH2)GL and 3.2 mM of GIRGI (8 eq) in the presence of 0.01 eq butelase 1 in 20 mM PBS buffer (pH 6.5) at room temperature. The ligation product was obtained in >80% yield in 1 h (FIG. 28, lower panel). The fact that Asn(NH2) can be recognized by butelase 1 as a P1 residue for inter-peptide ligation indicates it can also be used to mediate peptide cyclization (FIG. 27).

butelase 1, sequence (as listed by the source): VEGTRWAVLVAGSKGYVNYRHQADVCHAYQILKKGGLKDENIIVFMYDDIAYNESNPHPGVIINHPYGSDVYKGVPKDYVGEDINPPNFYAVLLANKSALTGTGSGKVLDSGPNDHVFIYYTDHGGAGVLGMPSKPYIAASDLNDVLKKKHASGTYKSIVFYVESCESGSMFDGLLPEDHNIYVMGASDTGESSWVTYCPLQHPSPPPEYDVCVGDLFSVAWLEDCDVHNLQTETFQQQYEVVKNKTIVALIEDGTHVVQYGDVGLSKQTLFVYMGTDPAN
T1 sequence (P14780 94-707, species assumed): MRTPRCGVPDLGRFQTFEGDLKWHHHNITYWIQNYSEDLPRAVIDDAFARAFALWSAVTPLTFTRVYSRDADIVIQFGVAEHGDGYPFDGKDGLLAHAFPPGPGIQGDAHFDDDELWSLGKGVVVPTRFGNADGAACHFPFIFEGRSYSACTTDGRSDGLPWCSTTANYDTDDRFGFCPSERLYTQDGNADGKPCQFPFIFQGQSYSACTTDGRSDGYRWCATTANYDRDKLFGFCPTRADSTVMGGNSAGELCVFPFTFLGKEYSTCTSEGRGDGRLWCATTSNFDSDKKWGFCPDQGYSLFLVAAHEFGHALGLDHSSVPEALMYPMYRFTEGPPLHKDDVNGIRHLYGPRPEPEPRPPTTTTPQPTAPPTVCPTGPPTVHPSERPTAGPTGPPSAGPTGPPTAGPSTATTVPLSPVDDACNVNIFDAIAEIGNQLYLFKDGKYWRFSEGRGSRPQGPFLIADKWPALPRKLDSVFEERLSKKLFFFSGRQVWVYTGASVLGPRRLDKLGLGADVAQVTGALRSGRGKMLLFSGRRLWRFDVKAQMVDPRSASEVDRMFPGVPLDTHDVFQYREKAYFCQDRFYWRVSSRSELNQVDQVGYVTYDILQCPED

Broadly, the Ki is a dissociation constant, usually derived from enzyme kinetics or from competition with a known ligand. For `CC[C@H](C)[C@@H]1NC(=O)[C@@H]2CSSC[C@H](NC(=O)[C@H](CCCNC(=N)N)NC(=O)[C@@H]3CSSC[C@H](NC1=O)C(=O)N[C@@H]([C@@H](C)O)C(=O)N[C@@H](CCCNC(=N)N)C(=O)NCC(=O)N[C@@H](Cc1ccccc1)C(=O)N3)C(=O)N[C@@H](CC(C)C)C(=O)N[C@H]1CSSC[C@H](NC(=O)[C@H](C(C)C)NC(=O)CNC(=O)[C@H](CCCNC(=N)N)NC(=O)[C@H](CCCNC(=N)N)NC1=O)C(=O)N[C@@H](CCCNC(=N)N)C(=O)N2` [Peptide 16, reference compound] (cyclo(GFCRCLCRRGVCRCICTR); disulfide 3-16, 5-14, 7-12 (inferred); ring closure inferred), the Ki was greater than 10000 nM on MMP9 and 60 ± 10.4 nM on MMP2.

Take “Ac-KYSN(NH2)GL (Ac-KYS[N(NH2)]GL-NH2; SMILES CC(=O)N[C@@H](CCCCN)C(=O)N[C@@H](Cc1ccc(O)cc1)C(=O)N[C@@H](CO)C(=O)N[C@@H](CC(=O)NN)C(=O)NCC(=O)N[C@@H](CC(C)C)C(N)=O)”: the “acyl donor substrate in butelase 1-mediated ligation” value with butelase 1 was “good acyl donor substrate”.
